The record followed here is PMC5061470, “Promiscuous targeting of bromodomains by bromosporine identifies BET proteins as master regulators of primary transcription response in leukemia” (Science Advances, 2016).

For test [1], the system named is K562. Nature of the test: Genome-wide expression analysis / MetaCore, GSEA. Format: cell-based, human. The note with it: K562, 6-hour treatment, 500 nM.
In test [2] the test system is MV4;11. Nature of the test: Genome-wide expression analysis / MetaCore, GSEA. Format: cell-based, human. The note with it: MV4;11, 6-hour treatment, 500 nM.
The subject of a further test is GABA transporter. It counts as binding.
The target in a further test is Ca2+ channel (N) (Rattus norvegicus, UniProt Q02294). As to the kind of experiment: biochemical. It counts as binding.
Chain of Ca2+ channel (N) (Q02294 whole entry, looked up): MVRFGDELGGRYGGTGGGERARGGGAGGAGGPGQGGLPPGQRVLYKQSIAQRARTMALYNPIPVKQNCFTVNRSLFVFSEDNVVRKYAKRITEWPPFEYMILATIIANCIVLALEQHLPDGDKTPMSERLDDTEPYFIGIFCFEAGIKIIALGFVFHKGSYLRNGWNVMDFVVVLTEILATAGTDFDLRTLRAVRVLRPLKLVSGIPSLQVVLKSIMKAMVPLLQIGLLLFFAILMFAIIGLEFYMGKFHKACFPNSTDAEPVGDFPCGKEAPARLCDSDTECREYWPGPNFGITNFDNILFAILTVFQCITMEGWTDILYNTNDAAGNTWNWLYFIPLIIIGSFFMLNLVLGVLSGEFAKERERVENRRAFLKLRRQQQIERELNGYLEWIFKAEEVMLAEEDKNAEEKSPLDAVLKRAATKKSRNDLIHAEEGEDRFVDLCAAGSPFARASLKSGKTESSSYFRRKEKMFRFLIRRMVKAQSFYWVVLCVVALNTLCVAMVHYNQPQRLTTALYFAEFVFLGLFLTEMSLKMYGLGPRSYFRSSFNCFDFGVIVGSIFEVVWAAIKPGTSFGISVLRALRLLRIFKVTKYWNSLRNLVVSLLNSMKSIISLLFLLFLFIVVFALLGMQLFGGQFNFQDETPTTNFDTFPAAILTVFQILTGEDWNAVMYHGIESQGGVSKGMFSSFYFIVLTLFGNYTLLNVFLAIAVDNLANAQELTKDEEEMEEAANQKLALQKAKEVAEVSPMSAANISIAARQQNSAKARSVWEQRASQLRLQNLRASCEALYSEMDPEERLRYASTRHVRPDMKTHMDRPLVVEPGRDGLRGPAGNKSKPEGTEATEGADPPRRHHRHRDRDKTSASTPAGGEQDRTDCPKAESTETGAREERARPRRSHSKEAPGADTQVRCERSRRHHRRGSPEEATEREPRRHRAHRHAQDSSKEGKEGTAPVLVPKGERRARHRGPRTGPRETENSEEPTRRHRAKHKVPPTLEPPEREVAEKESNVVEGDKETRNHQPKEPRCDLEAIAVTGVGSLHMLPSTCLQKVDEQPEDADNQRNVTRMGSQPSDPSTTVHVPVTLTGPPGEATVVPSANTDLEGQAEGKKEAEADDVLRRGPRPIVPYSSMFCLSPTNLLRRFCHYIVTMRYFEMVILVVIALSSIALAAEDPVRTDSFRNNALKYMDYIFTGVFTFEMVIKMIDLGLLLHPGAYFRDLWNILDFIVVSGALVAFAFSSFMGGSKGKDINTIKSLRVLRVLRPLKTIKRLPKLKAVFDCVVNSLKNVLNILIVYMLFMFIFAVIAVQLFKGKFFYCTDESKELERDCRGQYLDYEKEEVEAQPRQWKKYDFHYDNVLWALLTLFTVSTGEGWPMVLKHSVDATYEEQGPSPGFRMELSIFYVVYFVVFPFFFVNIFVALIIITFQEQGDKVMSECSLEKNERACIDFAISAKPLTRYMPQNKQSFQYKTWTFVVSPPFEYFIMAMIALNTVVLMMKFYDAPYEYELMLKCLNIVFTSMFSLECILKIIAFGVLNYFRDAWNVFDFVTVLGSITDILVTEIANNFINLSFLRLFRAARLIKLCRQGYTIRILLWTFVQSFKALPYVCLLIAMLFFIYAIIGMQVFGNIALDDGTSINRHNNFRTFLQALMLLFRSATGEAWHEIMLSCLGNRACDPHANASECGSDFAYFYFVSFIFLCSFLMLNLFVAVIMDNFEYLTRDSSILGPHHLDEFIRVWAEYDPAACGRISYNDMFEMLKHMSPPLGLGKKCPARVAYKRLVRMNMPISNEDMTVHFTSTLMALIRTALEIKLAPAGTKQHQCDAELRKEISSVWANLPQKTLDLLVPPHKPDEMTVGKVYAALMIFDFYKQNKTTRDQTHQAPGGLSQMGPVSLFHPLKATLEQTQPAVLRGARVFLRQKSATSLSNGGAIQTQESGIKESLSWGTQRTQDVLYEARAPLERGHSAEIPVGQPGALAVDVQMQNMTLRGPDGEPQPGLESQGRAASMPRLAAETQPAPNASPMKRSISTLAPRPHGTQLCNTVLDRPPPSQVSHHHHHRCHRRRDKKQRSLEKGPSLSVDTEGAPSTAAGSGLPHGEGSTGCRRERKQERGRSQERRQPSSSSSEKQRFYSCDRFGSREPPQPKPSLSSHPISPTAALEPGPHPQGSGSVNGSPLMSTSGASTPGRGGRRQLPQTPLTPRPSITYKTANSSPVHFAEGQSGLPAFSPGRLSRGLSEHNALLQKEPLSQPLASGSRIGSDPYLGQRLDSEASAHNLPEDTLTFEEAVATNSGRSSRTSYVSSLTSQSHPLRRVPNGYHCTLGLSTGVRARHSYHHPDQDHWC
A further test relates to Cl- channel (GABA-gated). It counts as binding.
In another test the test system is KASUMI-1. As to the kind of experiment: cells. It counts as cell-based, human. As to conditions: read-out: IC50, cell proliferation.
The subject of test [3] is K562. It counts as cell-based, human.
Another test deals with OCI-AML3. As to the kind of experiment: cells. Format: cell-based, human. As to conditions: read-out: IC50, cell proliferation.
Test [4] has as its system K562. Format: cell-based, human. The source holds these as a separate data set.
For test [5], the system named is MV4;11. As to the kind of experiment: cells. Format: cell-based, human. The note with it: read-out: IC50, cell proliferation.
Test [6] has as its system MV4;11. It counts as cell-based, human.

Consider `CCCOc1ccn2c(C(C)=O)cc(-c3ccccc3S(C)(=O)=O)c2c1` [GSK2801], for which the “effect on gene expression” value in the test with K562 [1] and with MV4;11 [2] was “no significant effect” in each case.

On to `O=C(O)C1CCCNC1` (centres unmarked) [nipecotic acid, reference compound], for which the IC50 in the test on GABA transporter turned out to be 1600 nM.

At Ca2+ channel (N), `C[C@@H](O)[C@@H]1NC(=O)[C@H](Cc2ccc(O)cc2)NC(=O)[C@@H]2C[C@@H](O)CN2C(=O)[C@H](CC(N)=O)NC(=O)[C@@H]2CSSC[C@@H]3NC(=O)[C@H](CO)NC(=O)[C@H](CO)NC(=O)CNC(=O)[C@@H]4C[C@@H](O)CN4C(=O)[C@H](CO)NC(=O)[C@H](CCCCN)NC(=O)[C@@H](N)CSSC[C@H](NC(=O)[C@H](CSSC[C@@H](C(=O)N[C@@H](Cc4ccc(O)cc4)C(N)=O)NC(=O)[C@H](CCCN=C(N)N)NC(=O)[C@H](CCCCN)NC1=O)NC(=O)[C@H](CC(N)=O)NC(=O)[C@H](Cc1ccc(O)cc1)NC(=O)[C@H](CO)NC(=O)[C@H]([C@@H](C)O)NC(=O)[C@@H]1C[C@@H](O)CN1C(=O)[C@H](CO)NC3=O)C(=O)N[C@@H](CCCN=C(N)N)C(=O)N[C@@H](CO)C(=O)N2` [omega -conotoxin GVIA, reference compound] displayed an IC50 of 2.4 pM.

`C=C(C)[C@@H]1[C@H]2OC(=O)[C@@H]1[C@]1(O)C[C@H]3O[C@]34C(=O)O[C@H]2[C@]14C` [picrotoxinin, reference compound]: the IC50 with Cl- channel (GABA-gated) stood at 150 nM.

With (+)-JQ1 [reference compound], the results for the IC50 in the test with KASUMI-1, in the test on OCI-AML3 and in the test on MV4;11 [5] were 42.7 nM, 49.5 nM and 80.2 nM, respectively. In addition, in the test on K562 [3], the “effect on cell proliferation” value is on record as “No significant effect”. In addition, the “effect on cell cycle” value in the test on K562 [4] is “little effect on cell cycle”; in the test on MV4;11 [6] it was “distinct G1 arrest with reduced S-phase populations”.
